Data taken from patent US10328083B1, “Compositions and methods for treating stroke” (University of South Florida, priority 2012, dated 2019).
Structures can show the parent of a compound that is named as a salt.

Legend:
Format in all cases: in vivo
[1] = tested on: permanent middle cerebral artery occlusion (MCAO) in rats; assay: Fluoro-Jade staining of neural biopsies from the site of the infarct after permanent MCAO
Protocol: (§1) Permanent middle cerebral artery occlusion (MCAO) was induced in rats. Post MCAO, conivaptan was administered to the rat via jugular catheter at varying times and dosages. The conivaptan used was VAPRISOL® which is a conivaptan hydrochloride premixed in 5% dextrose at 20 mg/100 ml in 100 ml IV bag. The conivaptan was purchased from Astellas Pharma USA, Inc. (lot#0789065) and sub-aliquoted into sterile foil-covered vials.
(§2) For rats receiving the 6-hour treatment, 0.5 ml (0.35 mg/kg) bolus conivaptan was administered six hours post MCAO, followed by administrations of 0.1 ml (0.07 mg/kg) conivaptan at nine hours post MCAO. At 20, 24, 28, and 32 hours post MCAO, 0.1 ml (0.07 mg/kg) conivaptan was administered. A saline control (1.4 ml of 0.9% saline) was then injected at 44 hours post MCAO. At 48 hours post MCAO, the rats were euthanized.
(§3) For rats receiving the 24-hour treatment, 0.5 ml (0.35 mg/kg) bolus conivaptan was administered 24 hours post MCAO, followed by administrations of 0.1 ml (0.07 mg/kg) conivaptan at 20, 24, 28 and 32 hours post MCAO. Saline controls (1.4 ml of 0.9% saline) were injected at 6, 9, and 44 hours post MCAO. At 48 hours post MCAO, the rats were euthanized.
Fluoro-Jade staining of neural biopsies obtained from the site of the infarct was also performed and the results are shown in Table 2.

[2] = tested on: permanent middle cerebral artery occlusion (MCAO) in rats; assay: Results of treatment post MCAO (Table 3; CD11b staining of infarct and surrounding areas per FIGS. 2-4); conditions: treatment started 6 h post MCAO; rats euthanized at 48 h post MCAO
Protocol: FIG. 1 is a table showing the conivaptan treatment regimens. The five treatment groups were normal saline (control)[NS], 5% saline infusion+5% saline maintenance [5% IM], conivaptan only [C], conivaptan+5% saline maintenance [C5% M], and conivaptan+5% saline infusion+5% saline maintenance [C5% IM]. (Euth.=euthanized).
FIG. 4 is a graph showing the average area fraction of CD11b staining at 48 hours post MCAO following the various treatments.
as §1, with “MCAO, conivaptan, hyper saline or normal saline” for “MCAO, conivaptan”, “the rats” for “the rat”, “was Vaprisol®” for “was VAPRISOL®”, “vials. Hyper saline solutions were 5% NaCl. Saline solutions were 0.9% NaCl.” for “vials.”
as §2, with “six-hour” for “6-hour”, “6” for “six”, “9” for “nine”, “euthanized. […]” for “euthanized.”

[3] = tested on: permanent middle cerebral artery occlusion (MCAO) in rats; assay: Mortality rate prior to euthanization after permanent MCAO; conditions: for FD: jugular catheter, up to 48 h post MCAO
Protocol: as §1, §2, §3
The mortality rate prior to euthanization is provided below in Table 1: […]

## Cc1nc2c([nH]1)-c1ccccc1N(C(=O)c1ccc(NC(=O)c3ccccc3-c3ccccc3)cc1)CC2 [conivaptan, conivaptan hydrochloride]
[1]; 6-hour treatment, n = 7, p = .06 compared to controls
  Fluoro-Jade staining Avg: 38.331 g
[1]; 6-hour treatment, p = .06
  decrease in Fluoro-Jade staining compared to controls: *p = .06 compared to controls 37% decrease
[1]; 24-hour treatment, n = 5, p = 0.3 compared to controls
  Fluoro-Jade staining Avg: 55.388 g
[2]
  Avg (Table 3, results of treatment): 0.486
[3]; 6-hour treatment: 0.35 mg/kg bolus 6 h post MCAO, then 0.07 mg/kg at 9, 20, 24, 28, 32 h
  FD: 2
[3]; 6-hour treatment, prior to euthanization at 48 h post MCAO
  % Survival: 78%
[3]; 6-hour treatment, value in brackets (total), prior to euthanization at 48 h post MCAO
  % Survival (total): 82%
[3]; 24-hour treatment: 0.35 mg/kg bolus 24 h post MCAO, then 0.07 mg/kg doses
  FD: 4
[3]; 24-hour treatment, prior to euthanization at 48 h post MCAO
  % Survival: 56%
